Results as given in US6194395A, “Cyclodextrin cladribine formulations” (Orthro-McNeil Pharmaceutical, Inc., priority 1999, dated 2001).
≈ marks a conversion by molar mass, not a printed value. Entries after “also recorded” stand apart in the source; their conditions may differ. Read-outs that look alike come from different tables or passages of the source.

How the values were obtained:
[1] = Stability of cladribine with/without HPCD at pH 1.4 and 8.2 at room temperature; assay type: physicochemical
Description: The effect of the HPCD on the stability of cladribine at pH 1.4 and 8.2 at room temperature was measured.

[2] = Solubility of cladribine in water at various HPCD concentrations (HPLC); assay type: physicochemical; conditions: for solubility at 120 h: pH 7.3
Description: The cylodextrin and the buffer salts were solved in Water for Injection and an excess of Cladribine was added. The solution was shaken during 5 days at room temperature and 4° C. The solution was filtered through a 0.2 μm filter.
The solubility of cladribine in water at various concentrations of 2-Hydroxypropyl-β-Cyclodextrin (HPCD) was measured by high performance liquid chromatography. […] Table 2 sets forth the results of the solubility measurements for the HPCD/cladribine formulation of Example 1.

[3] = in words, cited from earlier work
[4] = Solubility of cladribine in water at various HPCD concentrations (HPLC); assay type: physicochemical; conditions: no HPCD, temperature not stated, read-out: normal solubility of cladribine in water

## Nc1nc(Cl)nc2c1ncn2[C@H]1C[C@H](O)[C@@H](CO)O1 [Cladribine, 2-chloro-2'-deoxyadenosine]
[1]; combined with cyclodextrins, in words
  stability against hydrolysis when combined with cyclodextrins: significantly more stable
[1]; lower pH, with cyclodextrins like HPCD
  stability at lower pH when combined with cyclodextrins like HPCD: significantly more stable
[1]; pH 1.4, room temperature, with HPCD versus cladribine solution without HPCD (FIG. 1)
  stability at pH 1.4: significantly enhanced
[2]; 10% hp-β-cd in buffered water, pH 7.3, 4° C., 10% HP-β-CD (W/W), read-out: Solubility of Cladribine at 4° C.
  solubility at 120 h: 4.93 mg/mL (≈ 17.3 mM)
[2]; 10% hp-β-cd in buffered water, pH 7.3, RT, 10% HP-β-CD (W/W), read-out: Solubility of Cladribine (mg/ml) at RT
  solubility at 120 h: 6.4 mg/mL (≈ 22.4 mM)
[2]; 15% hp-β-cd in buffered water, pH 7.3, 4° C., 15% HP-β-CD (W/W), read-out: Solubility of Cladribine at 4° C.
  solubility at 120 h: 6.51 mg/mL (≈ 22.8 mM)
[2]; 15% hp-β-cd in buffered water, pH 7.3, RT, 15% HP-β-CD (W/W), read-out: Solubility of Cladribine (mg/ml) at RT
  solubility at 120 h: 8.47 mg/mL (≈ 29.6 mM)
[2]; 20% hp-β-cd in buffered water, pH 7.3, 4° C., 20% HP-β-CD (W/W), read-out: Solubility of Cladribine at 4° C.
  solubility at 120 h: 8.27 mg/mL (≈ 28.9 mM)
[2]; 20% hp-β-cd in buffered water, pH 7.3, RT, 20% HP-β-CD (W/W), read-out: Solubility of Cladribine (mg/ml) at RT
  solubility at 120 h: 10.5 mg/mL (≈ 36.7 mM)
[2]; 25% hp-β-cd in buffered water, pH 7.3, 4° C., 25% HP-β-CD (W/W), read-out: Solubility of Cladribine at 4° C.
  solubility at 120 h: 9.91 mg/mL (≈ 34.7 mM)
[2]; 25% hp-β-cd in buffered water, pH 7.3, RT, 25% HP-β-CD (W/W), read-out: Solubility of Cladribine (mg/ml) at RT
  solubility at 120 h: 12.4 mg/mL (≈ 43.3 mM)
[2]; with cyclodextrin, in words
  solubility of cladribine in water through use of the cyclodextrin formulation: significantly enhanced; also recorded: greatly increased
[3]; acidic environment of the gastro-intestinal system
  stability in acid: acid labile
[3]; simple saline
  stability in simple saline solutions: limited stability
[3]; water
  solubility in water: slightly soluble
[4]
  solubility: ~4520 µg/mL (≈ 15.8 mM)
